≈ marks a conversion by molar mass, not a printed value. Like-named read-outs stand apart in the source and are kept apart here. Positions of bridges follow the written chain, without caps; N, C: chain ends. Non-standard residues stand in square brackets, D forms with d. Residues, ends and D or L forms follow the SMILES beside them. *: point of attachment. Octanoyl(7-Me) = CC(C)CCCCCC(=O)*; dOrn = NCCC[C@@H](N)C(=O)O; Orn = NCCC[C@H](N)C(=O)O
Columns and labels:
Format in all cases: cell-based
[1] = test system: A. baumannii 2018-006
Procedure: (§1) Minimum inhibitory concentrations (MICs) were determined by broth microdilution according to CLSI guidelines in triplicate. Blood agar plates were inoculated with glycerol stocks of E. coli ATCC 25922, E. coli MCR-1 (clinical isolate from Utrecht Medical Centre, NL), E. coli EQAS MCR-2 (clinical isolate from Wageningen University and Research, NL), K. pneumoniae ATCC 11228, K. pneumoniae ATCC 13883, K. pneumonia 2048 (clnical isolate from Vrije Universiteit Amsterdam Medical Centre, NL), K. pneumonia JS-123 (clinical isolate from Utrecht Medical […]
(§2) (clinical isolate from Rijksinstituut voor Volksgezondheid en Milieu, NL), A. baumannii MDR (clinical isolate from Vrije Universiteit Amsterdam Medical Centre, NL), P. aeruginosa ATCC 27853, P. aeruginosa PAO1, P. aeruginosa NRZ-03961 (Reference strain from Das Nationale Referenzzentrum für gramnegative Krankenhauserreger, DE), P. aeruginosa M-120 (clinical isolate from Leiden University Medical Centre, NL) and S. aureus USA300 (clinical isolate from Texas Children's Hospital, USA). E. coli 25922 MCR1 was grown on LB agar supplemented with kanamycin. The inoculated agar plates were then incubated for 16 h at 37°C . Individually grown colonies were subsequently used to inoculate 3 mL aliquots of TSB that were then incubated at 37°C with shaking at 220 rpm. In parallel, the lipopeptide antibiotics to be assessed were serially diluted with Mueller-Hinton broth (MHB) in polypropylene 96-well plates (50 µL in each well).
(§3) Once the OD600 of the bacterial suspensions reached 0.5, the bacteria were diluted with MHB (final concentration 2 × 10^5 CFU mL−1) and added to the microplates containing the test compounds (50 µL to each well, final volume: 100 µL). The well-plates were sealed with an adhesive membrane and after 16 h of incubation at 37°C with shaking at 220 rpm the wells were visually inspected for bacterial growth. MIC values reported are based on three technical replicates and defined as the lowest concentration of the compound that prevented visible growth of bacteria. […]

[2] = test system: A. baumannii ATCC 17961
Procedure: as §1, §2, §3

[3] = test system: A. baumannii ATCC 17978
Procedure: as §1, §2, §3

[4] = test system: A. baumannii MDR; conditions: Ab MDR; broth microdilution (CLSI), MHB, 16 h 37 °C, three technical replicates
Procedure: as §1, §2, §3

[5] = test system: E. coli ATCC 25922 MCR-1; conditions: Ec ATCC 25922 MCR-1; broth microdilution (CLSI), MHB, 16 h 37 °C, three technical replicates
Procedure: as §1, §2, §3

[6] = test system: E. coli ATCC 25922
Procedure: as §1, §2, §3

[7] = test system: E. coli EQAS MCR-2; conditions: Ec EQAS MCR-2; broth microdilution (CLSI), MHB, 16 h 37 °C, three technical replicates
Procedure: as §1, §2, §3

[8] = test system: E. coli MCR-1 (clinical isolate); conditions: Ec MCR-1; broth microdilution (CLSI), MHB, 16 h 37 °C, three technical replicates
Procedure: as §1, §2, §3

[9] = test system: K. pneumoniae 2048
Procedure: as §1, §2, §3

[10] = test system: K. pneumoniae ATCC 11228
Procedure: as §1, §2, §3

[11] = test system: K. pneumoniae ATCC 13883
Procedure: as §1, §2, §3

[12] = test system: K. pneumoniae JS-123
Procedure: as §1, §2, §3

[13] = test system: P. aeruginosa ATCC 27853
Procedure: as §1, §2, §3

[14] = test system: P. aeruginosa M-120
Procedure: as §1, §2, §3

[15] = test system: P. aeruginosa NRZ-03961
Procedure: as §1, §2, §3

[16] = test system: P. aeruginosa PAO1
Procedure: as §1, §2, §3

[17] = test system: S. aureus USA300
Procedure: as §1, §2, §3

Molecule	MIC ([1]; 2018-006, 16 h) [µg/mL]	MIC ([2]; ATCC 17961, 16 h) [µg/mL]	MIC ([3]; ATCC 17978, 16 h) [µg/mL]	MIC [4] [µg/mL]	MIC ([6]; ATCC 25922, 16 h) [µg/mL]	MIC [7] [µg/mL]	MIC [8] [µg/mL]	MIC ([9]; 2048, 16 h) [µg/mL]	MIC ([10]; ATCC 11228, 16 h) [µg/mL]	MIC ([11]; ATCC 13883, 16 h) [µg/mL]	MIC ([12]; JS-123, 16 h) [µg/mL]	MIC ([13]; ATCC 27853, 16 h) [µg/mL]	MIC ([14]; M-120, 16 h) [µg/mL]	MIC ([15]; NRZ-03961, 16 h) [µg/mL]	MIC ([16]; PAO1, 16 h) [µg/mL]	MIC ([17]; USA300, 16 h) [µg/mL]	other results
CC[C@H](C)[C@@H]1NC(=O)[C@@H](NC(=O)[C@H](Cc2c[nH]c3ccccc23)NC(=O)[C@@H](CCCN)NC(=O)CNC(=O)[C@H](CCCN)NC(=O)[C@@H](CCCN)NC(=O)[C@@H](Cc2c[nH]c3ccccc23)NC(=O)[C@@H](Cc2ccc(O)cc2)NC(=O)[C@@H](CO)NC(=O)CCCCCC(C)C)[C@@H](C)NC(=O)CNC(=O)CNC(=O)[C@H](CC(N)=O)NC1=O [MeDap9-Lat (8), MeDap9-laterocidine]	4 (≈ 2.49 µM)	2 (≈ 1.25 µM)	2 (≈ 1.25 µM)	4 (≈ 2.49 µM)	1 (≈ 0.623 µM)	0.5 (≈ 0.312 µM)	0.5 (≈ 0.312 µM)	2 (≈ 1.25 µM)	1 to 2	1 to 2	0.5 (≈ 0.312 µM)	0.5 (≈ 0.312 µM)	1 (≈ 0.623 µM)	2 (≈ 1.25 µM)	2 (≈ 1.25 µM)	32 (≈ 20 µM)	MIC [5]: 1 µg/mL (≈ 0.623 µM)
CC[C@H](C)[C@@H]1NC(=O)[C@@H](NC(=O)[C@H](Cc2c[nH]c3ccccc23)NC(=O)[C@@H](CCCN)NC(=O)CNC(=O)[C@H](CCCN)NC(=O)[C@@H](CCCN)NC(=O)[C@@H](Cc2c[nH]c3ccccc23)NC(=O)[C@@H](Cc2ccc(O)cc2)NC(=O)[C@@H](CO)NC(=O)CCCCCC(C)C)COC(=O)CNC(=O)CNC(=O)[C@H](CC(N)=O)NC1=O [Ser9-Lat (4), Ser9-Laterocidine] ({Octanoyl(7-Me)}-[dS][dY][dW][dOrn][Orn]G[dOrn]WSINGG; ester 9-C)	4 (≈ 2.51 µM)	4 (≈ 2.51 µM)	2 (≈ 1.26 µM)		0.5 (≈ 0.314 µM)			2 (≈ 1.26 µM)	1 to 2	1 to 2	0.5 (≈ 0.314 µM)	0.5 to 1	1 (≈ 0.629 µM)	1 to 2	2 (≈ 1.26 µM)	>64	
colistin [reference compound]				<0.25		4	2 to 4										MIC ([1]; Ab 2018-006, broth microdilution (CLSI), MHB, 16 h 37 °C, three technical replicates): <0.25 µg/mL; MIC ([2]; Ab ATCC 17961, broth microdilution (CLSI), MHB, 16 h 37 °C, three technical replicates): <0.25 µg/mL; MIC ([3]; Ab ATCC 17978, broth microdilution (CLSI), MHB, 16 h 37 °C, three technical replicates): <0.25 µg/mL; MIC ([6]; Ec ATCC 25922, broth microdilution (CLSI), MHB, 2 × 10^5 CFU/mL, 16 h 37 °C, visual read-out, three technical replicates): 0.25 to 0.5 µg/mL; MIC ([9]; Kp 2048, broth microdilution (CLSI), MHB, 16 h 37 °C, three technical replicates): 0.5 to 1 µg/mL; MIC ([10]; Kp ATCC 11228, broth microdilution (CLSI), MHB, 16 h 37 °C, three technical replicates): <0.25 µg/mL; MIC ([11]; Kp ATCC 13883, broth microdilution (CLSI), MHB, 16 h 37 °C, three technical replicates): 0.25 µg/mL; MIC ([12]; Kp JS-123, broth microdilution (CLSI), MHB, 16 h 37 °C, three technical replicates): <0.25 µg/mL; MIC ([13]; Pa ATCC 27853, broth microdilution (CLSI), MHB, 16 h 37 °C, three technical replicates): <0.25 µg/mL; MIC ([14]; Pa M-120, broth microdilution (CLSI), MHB, 16 h 37 °C, three technical replicates): <0.25 µg/mL; MIC ([15]; Pa NRZ-03961, broth microdilution (CLSI), MHB, 16 h 37 °C, three technical replicates): 0.25 to 0.5 µg/mL; MIC ([16]; Pa PAO1, broth microdilution (CLSI), MHB, 16 h 37 °C, three technical replicates): 0.25 to 0.5 µg/mL; MIC ([17]; Sa USA300, broth microdilution (CLSI), MHB, 16 h 37 °C, three technical replicates): >64 µg/mL
